Patent US10844077B2, “Thiazolyl-containing compounds for treating proliferative diseases” (Dana-Farber Cancer Institute, Inc., priority 2014, dated 2020)

Tests used:
Assay in all cases: KINATIV assay of compounds I-3 and I-9, lysate directly labeled with ATP-biotin probe (no GF)
Assay type in all cases: cell-based
kinases in BCWM.1 cells [1] = molecular target: kinases in BCWM.1 cells (Homo sapiens, UniProt O94921)
Experimental: (§1) The cells were harvested and lysed. […] Bound kinases were identified and quantitated by ACTIVX as described in Patricelli et al., Biochemistry, 2007, 46(2): 350-358. The compounds were tested in duplicates against duplicate or quadruplicate control samples.

kinases in BCWM.1 cells [2] = molecular target: kinases in BCWM.1 cells (Homo sapiens, UniProt O95819); settings: ZC1/HGK; Lys1; 1 μM, 90 min; no GF
Experimental: as §1

kinases in BCWM.1 cells [3] = molecular target: kinases in BCWM.1 cells (Homo sapiens, UniProt P04049); settings: RAF1; Lys2; 1 μM, 90 min; no GF
Experimental: as §1

kinases in BCWM.1 cells [4] = molecular target: kinases in BCWM.1 cells (Homo sapiens, UniProt P12931); settings: SRC; Lys1; 1 μM, 90 min; no GF
Experimental: as §1

kinases in BCWM.1 cells [5] = molecular target: kinases in BCWM.1 cells (Homo sapiens, UniProt P15735); settings: PHKg2; Lys1; 1 μM, 90 min; no GF
Experimental: as §1

kinases in BCWM.1 cells [6] = molecular target: kinases in BCWM.1 cells (Homo sapiens, UniProt P30291); settings: Wee1; Lys2; 1 μM, 90 min; no GF
Experimental: as §1

kinases in BCWM.1 cells [7] = molecular target: kinases in BCWM.1 cells (Homo sapiens, UniProt P42338); settings: PIK3CB; ATP; 1 μM, 90 min; no GF
Experimental: as §1

kinases in BCWM.1 cells [8] = molecular target: kinases in BCWM.1 cells (Homo sapiens, UniProt P42680); settings: TEC; Activation Loop; 1 μM, 90 min; no GF
Experimental: as §1

kinases in BCWM.1 cells [9] = molecular target: kinases in BCWM.1 cells (Homo sapiens, UniProt P51812); settings: Lys2, 1 μM, 90 min, no GF
Experimental: as §1

kinases in BCWM.1 cells [10] = molecular target: kinases in BCWM.1 cells (Homo sapiens, UniProt Q00536)
Experimental: as §1

kinases in BCWM.1 cells [11] = molecular target: kinases in BCWM.1 cells (Homo sapiens, UniProt Q15349); settings: RSK3 domain1; Lys2; 1 μM, 90 min; no GF
Experimental: as §1

kinases in BCWM.1 cells [12] = molecular target: kinases in BCWM.1 cells (Homo sapiens, UniProt Q15418); settings: Lys2, 1 μM, 90 min, no GF
Experimental: as §1

kinases in BCWM.1 cells [13] = molecular target: kinases in BCWM.1 cells (Homo sapiens, UniProt Q16816); settings: PHKg1; Protein Kinase Domain; 1 μM, 90 min; no GF
Experimental: as §1

kinases in BCWM.1 cells [14] = molecular target: kinases in BCWM.1 cells (Homo sapiens, UniProt Q58A45); settings: PAN3; Protein Kinase Domain; 1 μM, 90 min; no GF
Experimental: as §1

kinases in BCWM.1 cells [15] = molecular target: kinases in BCWM.1 cells (Homo sapiens, UniProt Q86UE8); settings: TLK2; Lys2; 1 μM, 90 min; no GF
Experimental: as §1

kinases in BCWM.1 cells [16] = molecular target: kinases in BCWM.1 cells (Homo sapiens, UniProt Q86Y07); settings: VRK2; Lys2; 1 μM, 90 min; no GF
Experimental: as §1

kinases in BCWM.1 cells [17] = molecular target: kinases in BCWM.1 cells (Homo sapiens, UniProt Q8NEB9); settings: PIK3C3; ATP; 1 μM, 90 min; no GF
Experimental: as §1

kinases in BCWM.1 cells [18] = molecular target: kinases in BCWM.1 cells (Homo sapiens, UniProt Q8TBX8); settings: PIP4K2C; ATP; 1 μM, 90 min; no GF
Experimental: as §1

kinases in BCWM.1 cells [19] = molecular target: kinases in BCWM.1 cells (Homo sapiens, UniProt Q96SB4); settings: SRPK1; Lys2; 1 μM, 90 min; no GF
Experimental: as §1

kinases in BCWM.1 cells [20] = molecular target: kinases in BCWM.1 cells (Homo sapiens, UniProt Q9UBF8); settings: PI4KB; ATP; 1 μM, 90 min; no GF
Experimental: as §1

kinases in BCWM.1 cells [21] = molecular target: kinases in BCWM.1 cells (Homo sapiens, UniProt Q9UHD2); settings: TBK1; Lys1; 1 μM, 90 min; no GF
Experimental: as §1

kinases in BCWM.1 cells [22] = molecular target: kinases in BCWM.1 cells (Homo sapiens, UniProt Q9UL54); settings: TAO2; Lys2; 1 μM, 90 min; no GF
Experimental: as §1

kinases in BCWM.1 cells [23] = molecular target: kinases in BCWM.1 cells (Homo sapiens, UniProt Q9Y2H1); settings: NDR2; Lys2; 1 μM, 90 min; no GF
Experimental: as §1

kinases in BCWM.1 cells [24] = molecular target: kinases in BCWM.1 cells (Homo sapiens, UniProt Q9Y2I7); settings: PIP5K3; ATP; 1 μM, 90 min; no GF
Experimental: as §1

kinases in BCWM.1 cells [25] = molecular target: kinases in BCWM.1 cells (Homo sapiens, UniProt Q9Y572); settings: RIPK3; Lys2; 1 μM, 90 min; no GF
Experimental: as §1

kinases in BCWM.1 cells [26] = settings: 1 μM, 90 min, no GF
Experimental: as §1

Chain of kinases in BCWM.1 cells (Homo sapiens, UniProt P12931) (P12931 2-536 limits assumed): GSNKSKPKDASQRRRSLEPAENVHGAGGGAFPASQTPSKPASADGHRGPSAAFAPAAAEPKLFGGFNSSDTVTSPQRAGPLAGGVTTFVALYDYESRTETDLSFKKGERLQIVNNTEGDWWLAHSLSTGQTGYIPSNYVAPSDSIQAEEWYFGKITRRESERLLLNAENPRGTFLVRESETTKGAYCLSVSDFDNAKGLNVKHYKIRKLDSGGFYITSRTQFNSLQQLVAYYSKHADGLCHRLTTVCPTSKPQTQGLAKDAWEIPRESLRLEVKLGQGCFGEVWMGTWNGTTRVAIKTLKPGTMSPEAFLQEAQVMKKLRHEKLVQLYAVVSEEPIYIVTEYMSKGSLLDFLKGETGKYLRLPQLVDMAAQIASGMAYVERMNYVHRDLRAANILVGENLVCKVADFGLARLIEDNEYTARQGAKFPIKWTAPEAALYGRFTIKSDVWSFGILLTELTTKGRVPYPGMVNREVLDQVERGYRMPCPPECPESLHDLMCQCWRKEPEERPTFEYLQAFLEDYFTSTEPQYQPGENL
Chain of kinases in BCWM.1 cells (Homo sapiens, UniProt O95819) (O95819 2-1239 limits assumed): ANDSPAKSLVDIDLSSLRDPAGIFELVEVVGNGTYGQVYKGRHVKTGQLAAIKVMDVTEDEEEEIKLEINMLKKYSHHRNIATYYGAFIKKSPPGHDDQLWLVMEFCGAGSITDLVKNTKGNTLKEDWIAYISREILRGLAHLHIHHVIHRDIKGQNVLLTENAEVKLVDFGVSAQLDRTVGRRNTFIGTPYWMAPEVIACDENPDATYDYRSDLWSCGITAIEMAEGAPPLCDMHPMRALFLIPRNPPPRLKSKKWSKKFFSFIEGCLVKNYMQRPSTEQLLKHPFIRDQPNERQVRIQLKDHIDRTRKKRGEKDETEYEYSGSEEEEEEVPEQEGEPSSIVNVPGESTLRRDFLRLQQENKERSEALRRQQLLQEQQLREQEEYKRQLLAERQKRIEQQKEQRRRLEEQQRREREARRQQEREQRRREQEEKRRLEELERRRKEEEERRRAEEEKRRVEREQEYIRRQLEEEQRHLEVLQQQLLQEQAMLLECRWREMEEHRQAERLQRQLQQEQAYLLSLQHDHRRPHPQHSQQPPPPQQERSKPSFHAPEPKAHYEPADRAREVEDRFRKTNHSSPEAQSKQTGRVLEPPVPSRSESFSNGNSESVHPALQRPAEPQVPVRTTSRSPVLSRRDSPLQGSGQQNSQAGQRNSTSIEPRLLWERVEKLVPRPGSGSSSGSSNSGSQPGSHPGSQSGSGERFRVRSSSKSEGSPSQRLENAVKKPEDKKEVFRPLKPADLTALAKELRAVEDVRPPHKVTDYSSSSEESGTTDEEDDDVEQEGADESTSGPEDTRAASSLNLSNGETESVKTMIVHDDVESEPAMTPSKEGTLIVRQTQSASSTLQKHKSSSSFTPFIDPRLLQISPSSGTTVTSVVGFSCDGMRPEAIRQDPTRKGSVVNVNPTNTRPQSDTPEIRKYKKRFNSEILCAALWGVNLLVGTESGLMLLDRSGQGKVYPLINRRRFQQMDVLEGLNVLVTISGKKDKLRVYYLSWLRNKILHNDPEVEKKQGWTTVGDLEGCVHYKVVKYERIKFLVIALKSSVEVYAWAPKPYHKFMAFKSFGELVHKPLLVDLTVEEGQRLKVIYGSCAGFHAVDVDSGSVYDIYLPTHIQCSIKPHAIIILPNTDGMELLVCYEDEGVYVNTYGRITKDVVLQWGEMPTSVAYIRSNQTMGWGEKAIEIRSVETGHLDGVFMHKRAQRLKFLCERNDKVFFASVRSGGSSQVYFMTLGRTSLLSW
Chain of kinases in BCWM.1 cells (Homo sapiens, UniProt Q9Y2I7) (Q9Y2I7 2-2098 limits assumed): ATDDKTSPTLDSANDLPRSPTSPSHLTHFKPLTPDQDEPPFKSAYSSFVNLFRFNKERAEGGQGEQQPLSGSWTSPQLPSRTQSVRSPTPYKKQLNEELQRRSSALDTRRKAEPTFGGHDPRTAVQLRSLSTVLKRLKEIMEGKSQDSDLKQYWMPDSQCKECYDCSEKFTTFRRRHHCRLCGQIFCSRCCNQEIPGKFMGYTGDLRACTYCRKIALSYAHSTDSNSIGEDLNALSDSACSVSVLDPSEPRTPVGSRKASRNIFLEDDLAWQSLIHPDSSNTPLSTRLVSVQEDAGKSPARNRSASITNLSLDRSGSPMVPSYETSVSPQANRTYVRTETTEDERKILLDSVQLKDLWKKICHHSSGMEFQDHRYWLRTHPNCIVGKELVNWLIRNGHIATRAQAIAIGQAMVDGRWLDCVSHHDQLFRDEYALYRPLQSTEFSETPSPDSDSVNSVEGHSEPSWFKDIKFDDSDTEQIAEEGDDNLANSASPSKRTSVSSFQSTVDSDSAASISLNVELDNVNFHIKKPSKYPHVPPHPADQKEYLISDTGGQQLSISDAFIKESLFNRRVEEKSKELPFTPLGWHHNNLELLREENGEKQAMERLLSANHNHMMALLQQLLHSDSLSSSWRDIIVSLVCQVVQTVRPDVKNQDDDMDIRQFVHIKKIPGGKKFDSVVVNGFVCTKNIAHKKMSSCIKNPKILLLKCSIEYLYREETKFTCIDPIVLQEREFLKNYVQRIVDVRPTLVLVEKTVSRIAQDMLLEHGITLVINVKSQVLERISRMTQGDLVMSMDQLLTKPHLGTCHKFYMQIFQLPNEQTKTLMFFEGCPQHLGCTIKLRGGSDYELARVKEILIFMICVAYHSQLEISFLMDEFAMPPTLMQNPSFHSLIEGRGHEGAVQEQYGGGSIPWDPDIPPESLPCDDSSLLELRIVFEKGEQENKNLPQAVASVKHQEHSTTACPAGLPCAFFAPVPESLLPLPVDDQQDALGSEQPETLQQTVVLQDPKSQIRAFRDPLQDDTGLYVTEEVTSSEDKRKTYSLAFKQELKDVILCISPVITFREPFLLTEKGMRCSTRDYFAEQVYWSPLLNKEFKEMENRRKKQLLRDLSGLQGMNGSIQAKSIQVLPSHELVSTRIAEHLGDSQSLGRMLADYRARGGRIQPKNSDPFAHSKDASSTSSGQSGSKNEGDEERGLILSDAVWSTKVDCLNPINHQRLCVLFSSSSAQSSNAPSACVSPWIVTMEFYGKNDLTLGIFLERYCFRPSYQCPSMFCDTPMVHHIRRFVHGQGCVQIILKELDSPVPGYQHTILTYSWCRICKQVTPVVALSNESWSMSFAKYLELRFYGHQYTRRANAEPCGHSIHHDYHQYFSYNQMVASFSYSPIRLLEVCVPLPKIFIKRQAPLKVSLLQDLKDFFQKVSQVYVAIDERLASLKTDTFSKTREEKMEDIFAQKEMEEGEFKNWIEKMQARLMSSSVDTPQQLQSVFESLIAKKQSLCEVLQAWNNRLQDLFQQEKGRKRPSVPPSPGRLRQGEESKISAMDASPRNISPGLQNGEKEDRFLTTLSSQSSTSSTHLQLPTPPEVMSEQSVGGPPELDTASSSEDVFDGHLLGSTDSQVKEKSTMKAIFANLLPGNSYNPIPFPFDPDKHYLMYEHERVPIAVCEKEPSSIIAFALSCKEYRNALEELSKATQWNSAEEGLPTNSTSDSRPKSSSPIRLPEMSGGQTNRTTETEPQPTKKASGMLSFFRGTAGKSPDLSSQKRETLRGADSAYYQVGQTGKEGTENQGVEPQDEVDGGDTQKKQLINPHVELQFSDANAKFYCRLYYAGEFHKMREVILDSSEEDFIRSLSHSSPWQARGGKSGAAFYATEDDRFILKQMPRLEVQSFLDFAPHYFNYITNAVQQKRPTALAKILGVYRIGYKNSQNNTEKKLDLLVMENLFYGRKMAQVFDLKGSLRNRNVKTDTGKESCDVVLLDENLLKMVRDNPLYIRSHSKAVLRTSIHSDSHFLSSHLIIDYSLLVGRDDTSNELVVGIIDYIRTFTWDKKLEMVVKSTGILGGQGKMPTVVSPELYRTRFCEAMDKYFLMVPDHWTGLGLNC
Chain of kinases in BCWM.1 cells (Homo sapiens, UniProt Q9UBF8) (Q9UBF8 2-816 limits assumed): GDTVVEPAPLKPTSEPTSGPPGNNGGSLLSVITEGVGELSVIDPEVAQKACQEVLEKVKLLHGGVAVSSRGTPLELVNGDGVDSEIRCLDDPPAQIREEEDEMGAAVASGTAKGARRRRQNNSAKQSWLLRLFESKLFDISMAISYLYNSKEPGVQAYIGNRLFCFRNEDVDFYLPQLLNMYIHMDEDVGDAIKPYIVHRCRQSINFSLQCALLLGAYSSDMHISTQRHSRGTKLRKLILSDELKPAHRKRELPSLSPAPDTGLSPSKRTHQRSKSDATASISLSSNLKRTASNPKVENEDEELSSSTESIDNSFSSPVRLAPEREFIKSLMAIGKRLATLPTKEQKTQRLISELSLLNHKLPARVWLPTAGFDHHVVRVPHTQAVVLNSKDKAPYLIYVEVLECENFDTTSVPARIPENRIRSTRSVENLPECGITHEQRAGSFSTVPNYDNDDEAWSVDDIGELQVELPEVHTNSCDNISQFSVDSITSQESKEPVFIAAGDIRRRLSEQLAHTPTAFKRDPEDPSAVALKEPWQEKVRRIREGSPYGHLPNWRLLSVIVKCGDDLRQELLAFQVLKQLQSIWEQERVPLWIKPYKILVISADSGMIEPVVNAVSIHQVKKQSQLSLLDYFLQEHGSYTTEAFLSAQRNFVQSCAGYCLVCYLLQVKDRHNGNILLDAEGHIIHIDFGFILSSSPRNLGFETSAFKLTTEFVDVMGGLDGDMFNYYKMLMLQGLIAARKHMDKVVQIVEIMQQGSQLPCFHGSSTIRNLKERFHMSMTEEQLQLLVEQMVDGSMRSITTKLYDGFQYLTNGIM
Chain of kinases in BCWM.1 cells (Homo sapiens, UniProt Q8TBX8) (Q8TBX8 2-421 limits assumed): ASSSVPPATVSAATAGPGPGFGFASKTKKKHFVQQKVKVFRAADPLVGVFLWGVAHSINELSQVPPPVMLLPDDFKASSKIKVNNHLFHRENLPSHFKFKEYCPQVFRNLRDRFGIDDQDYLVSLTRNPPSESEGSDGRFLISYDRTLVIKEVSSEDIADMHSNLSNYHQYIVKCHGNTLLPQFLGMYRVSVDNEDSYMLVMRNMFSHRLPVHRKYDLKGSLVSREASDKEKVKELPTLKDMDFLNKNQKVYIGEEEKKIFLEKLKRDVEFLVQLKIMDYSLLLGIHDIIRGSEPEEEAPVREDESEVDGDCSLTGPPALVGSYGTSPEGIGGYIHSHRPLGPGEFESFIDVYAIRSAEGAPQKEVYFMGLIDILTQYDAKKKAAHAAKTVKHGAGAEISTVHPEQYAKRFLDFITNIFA

CCC(=O)N1CC[C@H](Nc2nccc(Nc3ncc(C(=O)Nc4c(C)cccc4C)s3)n2)C1 [Example I-9]
% change of MS signal compared to control sample (kinases in BCWM.1 cells [1]): −3.9%
% change of MS signal compared to control sample (kinases in BCWM.1 cells [2]): 20.9%
% change of MS signal compared to control sample (kinases in BCWM.1 cells [3]): 9.9%
% change of MS signal compared to control sample (kinases in BCWM.1 cells [4]): 78.6%
% change of MS signal compared to control sample (kinases in BCWM.1 cells [5]): 12.5%
% change of MS signal compared to control sample (kinases in BCWM.1 cells [6]): 14.3%
% change of MS signal compared to control sample (kinases in BCWM.1 cells [7]): 33.6%
% change of MS signal compared to control sample (kinases in BCWM.1 cells [8]): 97.4%
% change of MS signal compared to control sample (kinases in BCWM.1 cells [9]; RSK2 domain1): −5.6%
% change of MS signal compared to control sample (kinases in BCWM.1 cells [9]; RSK2 domain2): −9.7%
% change of MS signal compared to control sample (kinases in BCWM.1 cells [10]): 4.1%
% change of MS signal compared to control sample (kinases in BCWM.1 cells [11]): −1.4%
% change of MS signal compared to control sample (kinases in BCWM.1 cells [12]; RSK1 domain1): −2%
% change of MS signal compared to control sample (kinases in BCWM.1 cells [12]; RSK1 domain2): −9.7%
% change of MS signal compared to control sample (kinases in BCWM.1 cells [13]): −51%
% change of MS signal compared to control sample (kinases in BCWM.1 cells [14]): 23.2%
% change of MS signal compared to control sample (kinases in BCWM.1 cells [15]): −13.3%
% change of MS signal compared to control sample (kinases in BCWM.1 cells [16]): 6.2%
% change of MS signal compared to control sample (kinases in BCWM.1 cells [17]): −23.4%
% change of MS signal compared to control sample (kinases in BCWM.1 cells [18]): 10%
% change of MS signal compared to control sample (kinases in BCWM.1 cells [19]): −4%
% change of MS signal compared to control sample (kinases in BCWM.1 cells [20]): −24.3%
% change of MS signal compared to control sample (kinases in BCWM.1 cells [21]): 23%
% change of MS signal compared to control sample (kinases in BCWM.1 cells [22]): 4.3%
% change of MS signal compared to control sample (kinases in BCWM.1 cells [23]): −5.6%
% change of MS signal compared to control sample (kinases in BCWM.1 cells [24]): −6.7%
% change of MS signal compared to control sample (kinases in BCWM.1 cells [25]): −15%
% change of MS signal compared to control sample (kinases in BCWM.1 cells [26]; MST4, YSK1, Lys2): 9.7%
% change of MS signal compared to control sample (kinases in BCWM.1 cells [26]; NEK6, NEK7, Lys2): −3.3%
% change of MS signal compared to control sample (kinases in BCWM.1 cells [26]; PCTAIRE2, PCTAIRE3, Lys1): −4.7%
% change of MS signal compared to control sample (kinases in BCWM.1 cells [26]; PI4KA, PI4KAP2, ATP): 20.3%
% change of MS signal compared to control sample (kinases in BCWM.1 cells [26]; PKACa, PKCb, Lys2): 16.9%
% change of MS signal compared to control sample (kinases in BCWM.1 cells [26]; ROCK1, ROCK2, Lys2): 24.4%
% change of MS signal compared to control sample (kinases in BCWM.1 cells [26]; RSK1 domain1, RSK2 domain1, RSK3 domain1, Lys2): −12%
% change of MS signal compared to control sample (kinases in BCWM.1 cells [26]; SRPK1, SRPK2, Lys1): 10%
% change of MS signal compared to control sample (kinases in BCWM.1 cells [26]; TAO1, TAO3, Lys2): 5.1%
% change of MS signal compared to control sample (kinases in BCWM.1 cells [26]; Wnk1, Wnk2, Wnk3, Lys2): −10.8%
% change of MS signal compared to control sample (kinases in BCWM.1 cells [26]; Wnk1, Wnk2, ATP Loop): −6.3%
% change of MS signal compared to control sample (kinases in BCWM.1 cells [26]; ZC1/HGK, ZC2/TNIK, ZC3/MINK, Lys2): −2%
% change of MS signal compared to control sample (kinases in BCWM.1 cells [26]; p38d, p38g, Lys2): −8.8%
